Columns and labels:
yersiniabactin [1] = experiment: 13C labeled salicylic acid incorporation into Ybt in culture; format: cell-based; settings: FIG. 12 middle panel
yersiniabactin [2] = experiment: 13C labeled salicylic acid in infection model, labeled Ybt in mouse urine; format: in vivo; settings: FIG. 12 right panel

Compound: O=C(O)[13c]1[13cH][13cH][13cH][13cH][13c]1O [^13C labeled salicylic acid]
- incorporation of labeled compound into Ybt during culture (yersiniabactin [1]): incorporated
- labeled compound in mouse urine by mass spectrometry (yersiniabactin [2]): detectable

From patent US11400102B2, “Treatment for bacterial infections with salicylic acid analogs” (priority 2019, dated 2022)
